Experimental data as given in patent publication US9062051B2, “Compounds and pharmaceutical compositions thereof for the treatment of proliferative disorders” (GALAPAGOS NV, priority 2014, dated 2015).
Like-named read-outs stand apart in the source and are kept apart here.

Columns and labels:
[1] = Pharmacokinetics in rats (exposure, AUC); type: in vivo, male Sprague Dawley rats; settings: po; for AUC: male, Sprague Dawley, rat, plasma
Description: This study is performed with 6 naïve male Sprague Dawley rats (180-200 g, 6-8 weeks old). Rats are obtained from Janvier, Le Genest St Isle, France.
A controlled environment is maintained in the room with optimal conditions of approximately 15 air changes per hour, a temperature of 22±2 C, a relative humidity of 30-70% and a 12 hour light/dark cycle
Pelleted diet for rodents (UAR A04C-10) is used and is provided ad libitum. Before p.o. dosing, the animals are deprived of food for at least 12 hours before compound administration and 4 hours after administration. All animals had free access to tap water.
Two days before the dosing day, the implantation of a catheter in the jugular vein is done under gaseous anaesthesia with isoflurane.
Rats are dosed intravenously with test compound via a bolus in the tail vein with a dose level of 1 mg/kg. […]
The i.v. bolus and the oral administration are given a dose volume of 5 mL/kg.
From all animals approximately 200 μL blood samples are collected via the catheter and placed into tubes containing Li-heparin as anticoagulant. Blood samples are collected at the various time points (i.v.: 0.05, 0.25, 0.5, 1, 3, 5, 8 and 24 hours after dosing; p.o.: 0.25, 0.5, 1, 3, 5, 8 and 24 hours after dosing).
Blood is kept on ice. Within 1 hour after sampling, blood is centrifuged at 5,000 rpm for 10 min at 4° C. Immediately after centrifugation, the resulting plasma samples are collected into polypropylene tubes and are kept frozen at −20° C. pending bioanalysis.
Plasma samples are assayed by LC-MS/MS. Plasma proteins are precipitated with an excess of methanol containing the internal standard and the corresponding supernatant is injected on a C18 column. Analytes are eluted out the HPLC system by increasing the percentage of the organic mobile phase. An API4000 mass spectrometer (AB Sciex™) is used for the detection and quantification.
Pharmacokinetic parameters are calculated by non-compartmental analysis using WinNonlin® software (Pharsight, version 5.2).

Recombinant EphA7 = target: T1, Recombinant EphA7 (Homo sapiens, UniProt Q15375); test: EphA7 assay (33P incorporation into poly GT, filter plate); type: biochemical
T1 construct: purchased Carna 08-126
T1 sequence (Q15375 579-998 limits assumed): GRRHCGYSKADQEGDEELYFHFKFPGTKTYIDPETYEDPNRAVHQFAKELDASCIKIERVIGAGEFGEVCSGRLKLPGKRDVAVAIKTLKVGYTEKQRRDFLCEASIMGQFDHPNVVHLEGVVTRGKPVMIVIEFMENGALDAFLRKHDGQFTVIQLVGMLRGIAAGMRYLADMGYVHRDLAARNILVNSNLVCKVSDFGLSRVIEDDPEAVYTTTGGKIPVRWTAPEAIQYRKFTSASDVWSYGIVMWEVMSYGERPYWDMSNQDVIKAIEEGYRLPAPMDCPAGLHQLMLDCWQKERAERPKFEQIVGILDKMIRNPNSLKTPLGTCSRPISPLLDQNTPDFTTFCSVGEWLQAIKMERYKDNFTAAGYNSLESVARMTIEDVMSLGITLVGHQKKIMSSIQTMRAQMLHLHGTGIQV
Description: The principle of the assay consists of the measurement of incorporated ^33P into the substrate poly GT when phosphorylated by the enzyme EphA7 using [^33P]-γ-ATP and ATP. Unincorporated ^33P is removed by loading the samples on a filter plate (using a harvester, Perkin Elmer) and 6 subsequent washing steps. ^33P incorporated in polyGT is measured on a Topcount after addition of microscint to the filter plates (Perkin Elmer).
Recombinant EphA7 (Carna Cat#08-126, 2 ng per well) was incubated with 0.1 mg/mL Poly(Glu,Tyr)sodium salt (4:1), MW 20 000-50 000 (Sigma catalog number P0275) in kinase reaction buffer (10 mM MOPS pH 7.2, 5 mM DTT, 0.01% Triton-X100, 5 mM MnCl2, 0.5 mM Na3VO4, 5 mM beta-glycerolphosphate), 0.15 μM non-radioactive ATP, 0.125 μCi/25 μl ^33P-gamma-ATP (Perkin Elmer, catalog number NEG602K) final concentrations with or without 5 μL containing test compound or vehicle (DMSO, 1% final concentration), in a total volume of 25 μL, in a polypropylene 96-well plate (Greiner, V-bottom). After 90 min at 30° C., reactions were stopped by adding of 25 μL/well of 150 mM phosphoric acid. All of the terminated kinase reaction was transferred to prewashed (75 mM phosphoric acid) 96 well filter plates (Perkin Elmer catalog number 6005177) using a cell harvester (Perkin Elmer). Plates were washed 6 times with 300 μL per well of a 75 mM phosphoric acid solution and the bottom of the plates was sealed. 40 μL/well of Microscint-20 was added, the top of the plates was sealed and readout was performed using the Topcount (Perkin Elmer). The ability of a test compound to inhibit the kinase activity was determined using counts per minutes (cpm) measured by the Topcount as:
Cpm (cpd): cpm determined for sample with test compound present
Cpm (control): cpm determined for sample with positive control inhibitor (10 μM staurosporine)
Cpm (vehicle): cpm determined in the presence of vehicle (1% DMSO)
Dose dilution series were prepared for the compounds enabling the testing of dose-response effects in the EphA7 assay and the calculation of the IC50 for each compound. Each compound was routinely tested at concentration of 20 μM followed by a 1/5 serial dilution, 10 points in a final concentration of 1% DMSO. When potency of compound series increased, more dilutions may be prepared and/or the top concentration may be lowered (e.g. 5 μM, 1 μM).

[2] = EphA7 potency, 0.15 μM ATP, read-out: IC50

Cc1ccc(NC(=O)c2cccc(C(F)(F)F)c2)cc1-c1ccc2c(C(O)CN3CCOCC3)n[nH]c2n1 (centres unmarked) [Compound 2, N-{3-[3-(1-Hydroxy-2-morpholin-4-yl-ethyl)-1H-pyrazolo[3,4-b]pyridin-6-yl]-4-methyl-phenyl}-3-trifluoromethyl-benzamide]
Exposure AUC ([1]; 5 mg/kg): 659 ng·h/mL | AUC ([1]; 5 mg/kg): 852 ng·h/mL

Cc1cccc(C(=O)Nc2ccc(C)c(-c3ccc4c(C(O)CN5CCOCC5)n[nH]c4n3)c2)c1 (centres unmarked) [Compound 3, N-{3-[3-(1-Hydroxy-2-morpholin-4-yl-ethyl)-1H-pyrazolo[3,4-b]pyridin-6-yl]-4-methyl-phenyl}-3-methyl-benzamide]
IC50 (Recombinant EphA7; [2]): > 1 µM | Exposure AUC ([1]; 5 mg/kg): 159 ng·h/mL | AUC ([1]; 5 mg/kg): 214 ng·h/mL

COc1cc(OC)cc(C(=O)Nc2ccc(C)c(-c3ccc4c(C(O)CN5CCOCC5)n[nH]c4n3)c2)c1 (centres unmarked) [Compound 4, N-{3-[3-(1-Hydroxy-2-morpholin-4-yl-ethyl)-1H-pyrazolo[3,4-b]pyridin-6-yl]-4-methyl-phenyl}-3,5-dimethoxy-benzamide]
IC50 (Recombinant EphA7; [2]): > 1 µM | AUC ([1]; 5 mg/kg, formulated in methylcellulose 5% in water): 407 ng·h/mL

Cc1ccc(C(=O)Nc2cccc(C(F)(F)F)c2)cc1-c1ccc2c(C(O)CN3CCOCC3)n[nH]c2n1 (centres unmarked) [Compound 5, 3-[3-(1-Hydroxy-2-morpholin-4-yl-ethyl)-1H-pyrazolo[3,4-b]pyridin-6-yl]-4-methyl-N-(3-trifluoromethyl-phenyl)-benzamide]
IC50 (Recombinant EphA7; [2]): 0.25 to 0.5 µM

Cc1ccc(NC(=O)c2cccc(N(C)C)c2)cc1-c1ccc2c(C(O)CN3CCOCC3)n[nH]c2n1 (centres unmarked) [Compound 6, 3-Dimethylamino-N-{3-[3-(1-hydroxy-2-morpholin-4-yl-ethyl)-1H-pyrazolo[3,4-b]pyridin-6-yl]-4-methyl-phenyl}-benzamide]
IC50 (Recombinant EphA7; [2]): > 1 µM | AUC ([1]; 5 mg/kg): 1790 ng·h/mL

COc1cc(OC)cc(C(=O)Nc2ccc(C)c(-c3ccc4c(C(C)O)n[nH]c4n3)c2)c1 (centres unmarked) [Compound 9, N-{3-[3-(1-Hydroxy-ethyl)-1H-pyrazolo[3,4-b]pyridin-6-yl]-4-methyl-phenyl}-3,5-dimethoxy-benzamide]
IC50 (Recombinant EphA7; [2]): > 1 µM | AUC ([1]; 5 mg/kg): 3260 ng·h/mL

COc1cc(OC)cc(C(=O)Nc2ccc(C)c(-c3ccc4c(C)n[nH]c4n3)c2)c1 [Compound 11, 3,5-Dimethoxy-N-[4-methyl-3-(3-methyl-1H-pyrazolo[3,4-b]pyridin-6-yl)-phenyl]-benzamide]
IC50 (Recombinant EphA7; [2]): > 1 µM

CCc1n[nH]c2nc(-c3cc(NC(=O)c4cc(OC)cc(OC)c4)cnc3C)ccc12 [Compound 13, N-[5-(3-Ethyl-1H-pyrazolo[3,4-b]pyridin-6-yl)-6-methyl-pyridin-3-yl]-3,5-dimethoxy-benzamide]
IC50 (Recombinant EphA7; [2]): > 1 µM | AUC ([1]; 5 mg/kg): 1420 ng·h/mL

Cc1cc(C)cc(C(=O)Nc2ccc(C)c(-c3ccc4c(CO)n[nH]c4n3)c2)c1 [Compound 16, N-[3-(3-Hydroxymethyl-1H-pyrazolo[3,4-b]pyridin-6-yl)-4-methyl-phenyl]-3,5-dimethyl-benzamide]
IC50 (Recombinant EphA7; [2]): > 1 µM

COc1cc(OC)cc(C(=O)Nc2cnc(C)c(-c3ccc4c(C)n[nH]c4n3)c2)c1 [Compound 17, 3,5-Dimethoxy-N-[6-methyl-5-(3-methyl-1H-pyrazolo[3,4-b]pyridin-6-yl)-pyridin-3-yl]-benzamide]
AUC ([1]; 5 mg/kg): 1230 ng·h/mL

CCc1n[nH]c2nc(-c3cc(NC(=O)c4cc(C)cc(OCCN5CCOCC5)c4)ccc3C)ccc12 [Compound 20, N-[3-(3-Ethyl-1H-pyrazolo[3,4-b]pyridin-6-yl)-4-methyl-phenyl]-3-methyl-5-(2-morpholin-4-yl-ethoxy)-benzamide]
IC50 (Recombinant EphA7; [2]): 0.5 to 1 µM

CCc1n[nH]c2nc(-c3cc(NC(=O)c4cc(C)cc(OCCOC)c4)ccc3C)ccc12 [Compound 21, N-[3-(3-Ethyl-1H-pyrazolo[3,4-b]pyridin-6-yl)-4-methyl-phenyl]-3-(2-methoxy-ethoxy)-5-methyl-benzamide]
IC50 (Recombinant EphA7; [2]): > 1 µM

COc1cc(OC)cc(C(=O)Nc2ccc(C)c(-c3ccc4c(C5(O)CC5)n[nH]c4n3)c2)c1 [Compound 29, N-{3-[3-(1-Hydroxy-cyclopropyl)-1H-pyrazolo[3,4-b]pyridin-6-yl]-4-methyl-phenyl}-3,5-dimethoxy-benzamide]
IC50 (Recombinant EphA7; [2]): > 1 µM | AUC ([1]; 5 mg/kg): 5840 ng·h/mL

Cc1ccc(NC(=O)c2cccc(C(F)(F)F)c2)cc1-c1ccc2c(C(C)O)n[nH]c2n1 (centres unmarked) [Compound 35, N-{3-[3-(1-Hydroxy-ethyl)-1H-pyrazolo[3,4-b]pyridin-6-yl]-4-methyl-phenyl}-3-trifluoromethyl-benzamide]
IC50 (Recombinant EphA7; [2]): > 1 µM | AUC ([1]; 5 mg/kg): 3570 ng·h/mL

CCc1n[nH]c2nc(-c3cc(NC(=O)c4cc(OC)cc(C(F)(F)F)c4)cnc3C)ccc12 [Compound 49, N-[5-(3-Ethyl-1H-pyrazolo[3,4-b]pyridin-6-yl)-6-methyl-pyridin-3-yl]-3-methoxy-5-trifluoromethyl-benzamide]
IC50 (Recombinant EphA7; [2]): > 1 µM

CCc1n[nH]c2nc(-c3cc(NC(=O)c4cc(C)cc(C)c4)cnc3C)ccc12 [Compound 50, N-[5-(3-Ethyl-1H-pyrazolo[3,4-b]pyridin-6-yl)-6-methyl-pyridin-3-yl]-3,5-dimethyl-benzamide]
IC50 (Recombinant EphA7; [2]): 0.5 to 1 µM | AUC ([1]; 5 mg/kg): 1270 ng·h/mL

Cc1ccc(NC(=O)c2cccc(C(F)(F)F)c2)cc1-c1ccc2c([C@H](C)O)n[nH]c2n1 [Compound 55, N-{3-[3-((S)-1-Hydroxy-ethyl)-1H-pyrazolo[3,4-b]pyridin-6-yl]-4-methyl-phenyl}-3-trifluoromethyl-benzamide]
IC50 (Recombinant EphA7; [2]): 0.5 to 1 µM | AUC ([1]; 3 mg/kg): 1060 ng·h/mL | AUC ([1]; 5 mg/kg): 965 ng·h/mL | AUC ([1]; 30 mg/kg): 13600 ng·h/mL

Cc1ccc(NC(=O)c2cccc(C(F)(F)F)c2)cc1-c1cc(C)c2c(N)n[nH]c2n1 [Compound A, N-(3-(3-amino-4-methyl-1H-pyrazolo[3,4-b]pyridin-6-yl)-4-methylphenyl)-3-(trifluoromethyl)benzamide]
IC50 (Recombinant EphA7; comparative compounds, read-out: EphA7 potency IC50): > 1 µM | AUC ([1]; 5 mg/kg): 273 ng·h/mL
